“Also recorded” adds a separate entry of the source. Residues, ends and D or L forms follow the SMILES beside them. *: point of attachment. Cbz = O=C(OCc1ccccc1)*
How the values were obtained:
EWSR1::FLI1 [1] = test: qRT-PCR of EWSR1::FLI1 expression in A673 cells; type: cell-based, human; conditions: compound at 2.5-10 μM for 48 hours, FIGS. 6B-6C
Method: (§1) Total RNA was isolated from cells using Trizol (Invitrogen, Cat #15596). cDNA was synthesized using Proto Script II reverse transcription kit (New England Biolabs (NEB), Ipswich, MA, Cat #E6560) and real-time PCR reactions were performed using Quant Studio 3 (Applied Biosystems by Thermo Fisher Scientific) using primer sequences listed in Table 2. Gene expression was normalized to that of GAPDH. A control without reverse transcription (no-RT control) was carried out in parallel to rule out the possibility of DNA contamination. The experiments were performed three independent times.
(§2) In the experiment in FIG. 5D, cells were treated with 10 μM ketoconazole (Sigma, Cat #PHR1385; CAS No. 65277-42-1) for 72 hours. Dimethyl sulfoxide (DMSO) was used as vehicle control.

EWSR1::FLI1 [2] = test: Immunoblot of EWSR1::FLI1 protein levels (anti-FLI1 antibody) in A673 cells; type: cell-based, human; conditions: compound at 2.5-10 μM for 48 hours, FIGS. 6B-6C
Method: Cells extracts were prepared in radioimmunoprecipitation assay (RIPA) buffer (1% Triton-X100, 0.1% sodium dodecyl sulfate (SDS), 0.5% deoxycholic acid, 20 mM tris(hydroxymethyl)aminomethane (Tris), pH 7.5, 10% glycerol) containing 1× complete ethylenediaminetetraacetic acid (EDTA)-free protease inhibitor cocktail (Roche, Basel, Switzerland, Cat #11873580001) and 1 mM phenylmethylsulfonyl fluoride (PMSF). For the immunoblot in FIG. 7L, cells expressing FLAG-SMO (wild-type and mutants) were treated with 10 μM MG132 (Selleck Chemicals, Houston, TX, Cat #S2619; CAS No. 1211877-36-9) for 12 hours or 100 nM bafilomycin A1 (Selleck Chemicals, Cat #S1413; CAS No. 88899-55-2) for 6 hours. Total cell lysates (30 μg) were subjected to SDS-polyacrylamide gel electrophoresis (PAGE) and transferred to nitrocellulose membrane, which were blocked with 5% non-fat dry milk, and incubated with the following antibodies overnight at 4° C.: anti-C1GALT1 (1:1000 dilution; Santa Cruz Biotechnology, Dallas, TX, Cat #SC-100745), anti-FLI1 (1:2000 dilution; Abcam, Cambridge, United Kingdom, Cat #ab 133485), anti-EWSR1 (1:1000 dilution; Sigma Aldrich, Cat #HPA051771), anti-GLI1 (1:1000 dilution; Cell Signaling Technology, Danvers, MA, Cat #2553), anti-GLI2 (1:500 dilution; Abcam, Cat #ab187386), anti-PARP1 (1:500 dilution; Santa Cruz Biotechnology, Cat #SC-8007), anti-SMO (1:2000 dilution; Abcam, Cat #ab236465), anti-β-actin (1:2000 dilution; Sigma, Cat #A2228), anti-GAPDH (1:2000 dilution; Abcam, Cat #ab8245) or anti-FLAG M2 (1:1000 dilution; Sigma, Cat #F1804). The blots were imaged by exposing to x-ray film. The experiments were conducted three independent times, and the results from one representative experiment are shown.
as §2

SMO and GLI1 = test: Immunoblot and qRT-PCR of SMO and GLI1 in NIH 3T3 cells; type: cell-based, mouse; conditions: FIG. 7E
Method: as §1
(§3) Cells extracts were prepared in radioimmunoprecipitation assay (RIPA) buffer (1% Triton-X100, 0.1% sodium dodecyl sulfate (SDS), 0.5% deoxycholic acid, 20 mM tris(hydroxymethyl)aminomethane (Tris), pH 7.5, 10% glycerol) containing 1× complete ethylenediaminetetraacetic acid (EDTA)-free protease inhibitor cocktail (Roche, Basel, Switzerland, Cat #11873580001) and 1 mM phenylmethylsulfonyl fluoride (PMSF). For the immunoblot in FIG. 7L, cells expressing FLAG-SMO (wild-type and mutants) were treated with 10 μM MG132 (Selleck Chemicals, Houston, TX, Cat #S2619; CAS No. 1211877-36-9) for 12 hours or 100 nM bafilomycin A1 (Selleck Chemicals, Cat #S1413; CAS No. 88899-55-2) for 6 hours. […]

SMO = test: Immunoblot and qRT-PCR of SMO in A673 cells; type: cell-based, human; conditions: 100 nM ITZ for 72 hours plus MG132 or BafA1, FIG. 7K
Method: as §1, §3

[3] = tested on: FLAG-SMO (T55A) and FLAG-SMO (T500A); test: Immunoblot of FLAG-SMO mutants stably expressed in A673 cells; type: cell-based, human; conditions: 10 μM MG132 for 12 hours or 100 nM bafilomycin A1 for 6 hours, FIG. 7L
Description: To generate cell lines stably ectopically expressing EWSR1::FLI1 (also referred to as EWS-FLI1, EWS::FLI1, or EWSR1-FLI1), TC-71 or NIH 3T3 cells were transduced with the lentiviral expression plasmid pCDH-puro-EWS-FLI1 or, as a control, pCDH-CMV-MCS-EFla-Puro and cells were selected with puromycin for five days. NIH 3T3 cells stably expressing SMO were generated by transduction of pHAGE-SMO or, as a control, pHAGE puro. NIH 3T3 cells stably expressing C1GALT1 were generated by transduction of C1GALT1-expression plasmid EX-W0494-Lv120 or, as a control, EX-EGFP-Lv120. A673 cell lines stably expressing FLAG-tagged wild-type SMO, FLAG-SMO (T55A), or FLAG-SMO (T500A) used lentiviral plasmids synthesized by GenScript in the pGenLenti vector.
Cells extracts were prepared in radioimmunoprecipitation assay (RIPA) buffer (1% Triton-X100, 0.1% sodium dodecyl sulfate (SDS), 0.5% deoxycholic acid, 20 mM tris(hydroxymethyl)aminomethane (Tris), pH 7.5, 10% glycerol) containing 1× complete ethylenediaminetetraacetic acid (EDTA)-free protease inhibitor cocktail (Roche, Basel, Switzerland, Cat #11873580001) and 1 mM phenylmethylsulfonyl fluoride (PMSF). […]

[4] = tested on: FLAG-SMO (T55A) and FLAG-SMO (T500A); test: Ubiquitination immunoprecipitation assay in A673 cells; type: cell-based, human; conditions: A673 cells expressing HA-Ub; 10 μM MG132 or 100 nM bafilomycin A1 for 8 hours; FIG. 7M
Method: A673 cells stably expressing FLAG-tagged wild-type SMO, FLAG-SMO (T55A) or FLAG-SMO (T500A) were transfected with a plasmid expressing HA-tagged ubiquitin (HA-Ub; Addgene plasmid #18712 (Kamitani et al., 1997) and treated in the presence or absence of 10 μM MG132 for 8 hours or 100 nM bafilomycin A1 for 8 hours. Cell lysates were incubated with either an anti-HA magnetic beads (Sigma, Cat #SAE0197) or anti-FLAG M2 magnetic beads (Sigma, Cat #M8823), and immunoprecipitated proteins were detected using an anti-FLAG M2 (1:1500 dilution; Sigma, Cat #F1804) or anti-HA (1:1500 dilution; Cell Signaling Cat #2367) antibody.

[5] = tested on: FLAG-SMO (T55A) and FLAG-SMO (T500A); test: Immunoblot of FLAG-SMO mutants stably expressed in TC-71 cells; type: cell-based, human; conditions: FIG. 9F
Method: as §3

EWSR1::FLI1/ERG = test: qRT-PCR and immunoblot of EWSR1::FLI1/ERG in TC-71, TC-32 and TC-106 cells; type: cell-based, human; conditions: 48 hours, FIG. 9D
[6] = Animal weight / tolerability in xenograft-bearing mice; conditions: mice with TC-71, TC-32 or TC-106 xenografts; 100 mg/kg; FIG. 11G
Method: A673, TC-71, TC-106, or TC-32 cells (5×10^6) were suspended in PBS and […] ® extracellular matrix (Corning Cat #356234) in a 1:1 ratio, and subcutaneously injected into the right flank of 6-7 week old NOD scid gamma (NSG) immunocompromised mice (n=3 for each vehicle or drug treatment). Tumor dimensions were measured every 3 days with calipers, and the tumor volume was calculated using the formula volume=width^2× length/2.

[7] = tested on: EWSR1::FLI1^tdTomato reporter; test: Flow cytometry of tdTomato in A673/EWSR1::FLI1^tdTomato/Cas9/EGFP reporter cells; type: cell-based, human; conditions: 10 μM for 72 hours; FIG. 5D
Method: To confirm that knockdown of EWSR1::FLI1 would reduce tdTomato fluorescence, A673/EWSR1::FLI1^tdTomato cells (1×10^5 cells/well in a 6-well plate) were infected with lentiviral particles expressing a non-silencing (NS), EWSR1, or FLI1 short hairpin RNA (shRNA) (Table 3), selected with 2 μg/ml puromycin for 5 days, and analyzed by flow cytometry using a BD LSRII flow cytometer (BD Biosciences). A673/EWSR1::FLI1^tdTomato cells were then infected with lentiviral particles expressing the plasmid lentiCas9-Blast (a gift from Feng Zhang; Addgene plasmid #52962; (Sanjana et al., 2014)) and selected with 3 μg/ml blasticidin for 7 days. Cas9 activity was confirmed by transducing A673/EWSR1::FLI1^tdTomato/Cas9 cells with the lentiviral vector pXPR_011 (a gift from John Doench and David Root; Addgene plasmid #59702; (Doench et al., 2014)), which carries a puromycin resistance marker and includes an enhanced green fluorescent protein (EGFP, also referred to as GFP) reporter gene and an sgRNA sequence specifically targeting the EGFP gene, followed by selection with 2 μg/ml puromycin for 5 days and analysis of EGFP by flow cytometry. Finally, A673/EWSR1::FLI1^tdTomato/Cas9 cells were infected with lentiviral particles expressing the plasmid pLenti CMV EGFP Blast (659-1) (a gift from Eric Campeau and Paul Kaufman; Addgene plasmid #17445 (Campeau et al., 2009)). […]

C1GALT1 = C1GALT1 (Homo sapiens, UniProt Q9NS00); conditions: previous studies (Lin et al., 2018); cited from earlier work
C1GALT1, sequence (Q9NS00 whole entry): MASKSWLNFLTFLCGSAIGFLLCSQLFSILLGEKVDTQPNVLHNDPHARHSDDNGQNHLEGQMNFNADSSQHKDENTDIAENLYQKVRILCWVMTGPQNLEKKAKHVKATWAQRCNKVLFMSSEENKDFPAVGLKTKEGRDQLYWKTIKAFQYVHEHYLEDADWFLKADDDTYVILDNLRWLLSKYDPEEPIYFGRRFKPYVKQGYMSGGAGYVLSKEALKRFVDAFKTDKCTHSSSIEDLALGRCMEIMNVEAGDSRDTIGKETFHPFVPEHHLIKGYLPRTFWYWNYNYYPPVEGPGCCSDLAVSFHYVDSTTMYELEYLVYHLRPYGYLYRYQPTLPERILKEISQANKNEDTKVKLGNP

CNC1CCC(N(Cc2cccc(-c3ccncc3)c2)C(=O)c2sc3ccccc3c2Cl)CC1.Cl (stereo not shown) [SAG, Smoothened Agonist hydrochloride]
EWSR1::FLI1 mRNA levels (EWSR1::FLI1 [1]): dose-dependent increase
EWSR1::FLI1 protein levels (EWSR1::FLI1 [2]): dose-dependent increase
levels of SMO and GLI1 (SMO and GLI1): increased levels

CC1=C2C[C@H]3[C@@H](CC=C4C[C@@H](O)CC[C@@]43C)[C@@H]2CC[C@]12O[C@@H]1C[C@H](C)CN[C@H]1[C@H]2C [cyclopamine]
EWSR1::FLI1 mRNA levels (EWSR1::FLI1 [1]): dose-dependent reduction
EWSR1::FLI1 protein levels (EWSR1::FLI1 [2]): dose-dependent reduction

CC(C)C[C@@H](C=O)NC(=O)[C@H](CC(C)C)NC(=O)[C@H](CC(C)C)NC(=O)OCc1ccccc1 [MG132] (Cbz-Leu-Leu-Leu-aldehyde)
reduction in SMO levels observed upon ITZ treatment (SMO): reversed
expression of SMO (T55A) and SMO (T500A) mutant proteins [3]: restored
ubiquitination of SMO (T55A) and SMO (T500A) [4]: detected
stability of O-GalNAc-glycosylation-defective SMO mutants [5]: restored

CN(C)c1ccccc1CN1CCCN(Cc2ccccc2N(C)C)C1c1ccncc1 [GANT-61]
EWSR1::FLI1 mRNA levels (EWSR1::FLI1 [1]): dose-dependent reduction
EWSR1::FLI1 protein levels (EWSR1::FLI1 [2]): dose-dependent reduction

CO/C1=C\C(C)=C\[C@@H](C)[C@@H](O)[C@@H](C)C/C(C)=C/C=C/[C@H](OC)[C@@H]([C@@H](C)[C@@H](O)[C@H](C)[C@@]2(O)C[C@@H](O)[C@H](C)[C@@H](C(C)C)O2)OC1=O [bafilomycin A1]
reduction in SMO levels observed upon ITZ treatment (SMO): reversed
expression of SMO (T55A) and SMO (T500A) mutant proteins [3]: restored
ubiquitination of SMO (T55A) and SMO (T500A) [4]: detected
stability of O-GalNAc-glycosylation-defective SMO mutants [5]: restored

CCC(C)n1ncn(-c2ccc(N3CCN(c4ccc(OCC5COC(Cn6cncn6)(c6ccc(Cl)cc6Cl)O5)cc4)CC3)cc2)c1=O (stereo not shown) [ITZ, itraconazole]
EWSR1::FLI1/ERG expression (EWSR1::FLI1/ERG): reduced
animal weight [6]: absence of weight loss

CC(=O)N1CCN(c2ccc(OCC3COC(Cn4ccnc4)(c4ccc(Cl)cc4Cl)O3)cc2)CC1 (stereo not shown) [ketoconazole]
EWSR1::FLI1 expression (EWSR1::FLI1^tdTomato reporter) [7]: does not reduce; also recorded: no effect; also recorded: did not result in reduced
inhibition of C1GALT1 (C1GALT1): not to inhibit; also recorded: does not inhibit
